For one assay, the target named is T1, mouse TAAR1 (Mus musculus, UniProt Q923Y8).
T1 construct: expressed in transfected cells; host or cells: HEK293 (ATCC # CRL-1573), stably transfected with pIRESneo2 expression plasmid
Put plainly: TAAR1 radioligand binding with [3H]-rac-2-(1,2,3,4-tetrahydro-1-naphthyl)-2-imidazoline, membranes of stably transfected HEK293 cells. Particulars: first value of the cell, read-out: Ki (μM) mouse/rat: mouse. The gist of the method: (§1)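 Competition binding: competitors spanning 10 pM–30 μM displace 60 nM [3H]-rac-2-(1,2,3,4-tetrahydro-1-naphthyl)-2-imidazoline from stably transfected HEK293 membranes (mouse or rat receptor), 30 min, 4 °C, pH 7.0 buffer with Mg2+/Ca2+. Bound label counted after GF/C filtration; 10 μM unlabelled ligand defines non-specific binding.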

For a further assay, the target named is T2, rat TAAR1 (Rattus norvegicus, UniProt Q923Y9).
T2 construct: expressed in transfected cells; host or cells: HEK293 (ATCC # CRL-1573), stably transfected with pIRESneo2 expression plasmid
T2 sequence (Q923Y9 whole entry): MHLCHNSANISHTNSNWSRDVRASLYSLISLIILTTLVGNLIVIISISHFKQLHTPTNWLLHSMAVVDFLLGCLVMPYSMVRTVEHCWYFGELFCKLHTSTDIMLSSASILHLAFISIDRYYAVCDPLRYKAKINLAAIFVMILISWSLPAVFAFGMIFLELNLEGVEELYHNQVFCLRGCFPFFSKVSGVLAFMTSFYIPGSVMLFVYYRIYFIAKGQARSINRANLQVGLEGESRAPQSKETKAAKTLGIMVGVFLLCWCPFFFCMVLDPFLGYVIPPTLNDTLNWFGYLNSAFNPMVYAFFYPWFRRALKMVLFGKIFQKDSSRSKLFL
The description is as above. Particulars: second value of the cell, read-out: Ki (μM) mouse/rat: rat. The procedure, abridged: as §1

T1 sequence (Q923Y8 whole entry): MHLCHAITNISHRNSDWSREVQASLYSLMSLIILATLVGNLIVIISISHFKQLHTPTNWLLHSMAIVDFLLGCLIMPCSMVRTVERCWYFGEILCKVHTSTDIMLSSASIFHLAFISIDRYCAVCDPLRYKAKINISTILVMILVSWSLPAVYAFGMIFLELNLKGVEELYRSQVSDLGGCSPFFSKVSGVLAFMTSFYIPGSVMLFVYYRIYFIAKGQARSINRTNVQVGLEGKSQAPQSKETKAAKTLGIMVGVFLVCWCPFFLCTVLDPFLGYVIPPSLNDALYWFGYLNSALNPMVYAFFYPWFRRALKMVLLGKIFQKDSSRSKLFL

In the case of `COc1cc(C(=O)Nc2ccc(CC[C@H]3COC(N)=N3)cc2)nc(C(C)C)n1` [Example 207, 2-Isopropyl-6-methoxy-pyrimidine-4-carboxylic acid {4-[2-((S)-2-amino-4,5-dihydro-oxazol-4-yl)-ethyl]-phenyl}-amide], the Ki amounted to 0.0007 µM on mouse TAAR1 and 0.0011 µM on rat TAAR1.
For `NC1=N[C@@H](CCc2ccc(NC(=O)c3nccc4ccccc34)cc2)CO1` [Example 93, Isoquinoline-1-carboxylic acid {4-[2-((S)-2-amino-4,5-dihydro-oxazol-4-yl)-ethyl]-phenyl}-amide] the same measures were 0.0016 µM and 0.0003 µM.
For the compound `NC1=N[C@@H](CCc2ccc(NC(=O)Cc3ccc(F)cc3)cc2)CO1` [Example 69, N-{4-[2-((S)-2-Amino-4,5-dihydro-oxazol-4-yl)-ethyl]-phenyl}-2-(4-fluoro-phenyl)-acetamide], the Ki on mouse TAAR1 is 0.003 µM; on rat TAAR1 it was 0.0009 µM.
For `NC1=N[C@@H](CCc2ccc(NC(=O)OCc3ccc(Cl)cc3)cc2)CO1` [Example 146, {4-[2-((S)-2-Amino-4,5-dihydro-oxazol-4-yl)-ethyl]-phenyl}-carbamic acid 4-chloro-benzyl ester] the same measures were 0.0001 µM and 0.0003 µM.
For `N#Cc1ccc(C(=O)Nc2ccc(CC[C@H]3COC(N)=N3)cc2)cn1` [Example 111, N-{4-[2-((S)-2-Amino-4,5-dihydro-oxazol-4-yl)-ethyl]-phenyl}-6-cyano-nicotinamide] the same measures were 0.004 µM and 0.0057 µM.
In the same order, the values of `Cc1cc(C(=O)Nc2ccc(CC[C@H]3COC(N)=N3)cc2)sc1C` [Example 202, (S)-N-(4-(2-(2-Amino-4,5-dihydrooxazol-4-yl)ethyl)phenyl)-4,5-dimethylthiophene-2-carboxamide] are 0.0007 µM and 0.0004 µM.
For the compound `CC(C(=O)Nc1ccc(CC[C@H]2COC(N)=N2)cc1)c1cccc(C(F)(F)F)c1` (stereo partly drawn) [Example 81, N-{4-[2-((S)-2-Amino-4,5-dihydro-oxazol-4-yl)-ethyl]-phenyl}-2-(3-trifluoromethyl-phenyl)-propionamide], the Ki was 0.001 µM at mouse TAAR1 and 0.0022 µM at rat TAAR1.
As to `NC1=N[C@@H](CCc2ccc(NC(=O)Nc3cccc(Cl)c3)cc2)CO1` [Example 95, 1-{4-[2-((S)-2-Amino-4,5-dihydro-oxazol-4-yl)-ethyl]-phenyl}-3-(3-chloro-phenyl)-urea], the Ki at mouse TAAR1 and at rat TAAR1 was 0.0001 µM in each case.
Turning to `NC1=N[C@@H](CCc2ccc(NC(=O)c3ccc(Br)cn3)cc2)CO1` [Example 92, 5-Bromo-pyridine-2-carboxylic acid {4-[2-((S)-2-amino-4,5-dihydro-oxazol-4-yl)-ethyl]-phenyl}-amide], the Ki at mouse TAAR1 turned out to be 0.0002 µM; at rat TAAR1 it was 0.0004 µM.
For `N#Cc1ccc(NC(=O)c2ccc(CC[C@H]3COC(N)=N3)cc2)cc1` [Example 142, (S)-4-(2-(2-Amino-4,5-dihydrooxazol-4-yl)ethyl)-N-(4-cyanophenyl)benzamide] the same measures were 0.0044 µM and 0.0011 µM.
Consider `NC1=N[C@@H](CCc2ccc(C(=O)Nc3ccc(Cl)cc3)cc2)CO1` [Example 48, 4-[2-((S)-2-Amino-4,5-dihydro-oxazol-4-yl)-ethyl]-N-(4-chloro-phenyl)-benzamide], for which the Ki is 0.001 µM on mouse TAAR1 and 0.0003 µM on rat TAAR1.
Turning to `Cc1cnc(C(=O)Nc2ccc(CC[C@H]3COC(N)=N3)cc2)cn1` [Example 129, (S)-N-(4-(2-(2-Amino-4,5-dihydrooxazol-4-yl)ethyl)phenyl)-5-methylpyrazine-2-carboxamide], the Ki amounted to 0.0039 µM at mouse TAAR1 and 0.0033 µM on rat TAAR1.
For `COc1cncc(C(=O)Nc2ccc(CC[C@H]3COC(N)=N3)cc2)n1` [Example 128, (S)-N-(4-(2-(2-Amino-4,5-dihydrooxazol-4-yl)ethyl)phenyl)-6-methoxypyrazine-2-carboxamide], the Ki at mouse TAAR1 was 0.0079 µM; on rat TAAR1, 0.0054 µM.
For `CC(C)c1cc(C(=O)Nc2ccc(CC[C@H]3COC(N)=N3)cc2)ccn1` [Example 198, (S)-N-(4-(2-(2-Amino-4,5-dihydrooxazol-4-yl)ethyl)phenyl)-2-isopropylisonicotinamide] the same measures were 0.0036 µM and 0.0029 µM.
For `Cc1cc(C(=O)Nc2ccc(CC[C@H]3COC(N)=N3)cc2)ccn1` [Example 172, (S)-N-(4-(2-(2-Amino-4,5-dihydrooxazol-4-yl)ethyl)phenyl)-2-methylisonicotinamide] the same measures were 0.0084 µM and 0.0019 µM.
For `NC1=N[C@@H](CCc2ccc(NC(=O)Nc3ccc(C(F)(F)F)cc3)cc2)CO1` [Example 15, 1-{4-[2-((S)-2-Amino-4,5-dihydro-oxazol-4-yl)-ethyl]-phenyl}-3-(4-trifluoromethyl-phenyl)-urea] the same measures were 0.0001 µM and 0.0001 µM.
Consider `Cc1cc(Cl)cc(C(=O)Nc2ccc(CC[C@H]3COC(N)=N3)cc2)n1` [Example 156, (S)-N-(4-(2-(2-Amino-4,5-dihydrooxazol-4-yl)ethyl)phenyl)-4-chloro-6-methylpicolinamide], for which the Ki was 0.0006 µM on mouse TAAR1 and 0.0063 µM on rat TAAR1.
For `CCOc1ccc(CC(=O)Nc2ccc(CC[C@H]3COC(N)=N3)cc2)cc1` [Example 66, N-{4-[2-((S)-2-Amino-4,5-dihydro-oxazol-4-yl)-ethyl]-phenyl}-2-(4-ethoxy-phenyl)-acetamide] the same measures were 0.0026 µM and 0.0017 µM.
In the same order, the values of `NC1=N[C@@H](CCc2ccc(NC(=O)c3cc(Cl)cc(Cl)n3)cc2)CO1` [Example 158, (S)-N-(4-(2-(2-Amino-4,5-dihydrooxazol-4-yl)ethyl)phenyl)-4,6-dichloropicolinamide] are 0.0006 µM and 0.0006 µM.
With `COc1ccc(CC(=O)Nc2ccc(CC[C@H]3COC(N)=N3)cc2)cc1` [Example 68, N-{4-[2-((S)-2-Amino-4,5-dihydro-oxazol-4-yl)-ethyl]-phenyl}-2-(4-methoxy-phenyl)-acetamide], the Ki on mouse TAAR1 is 0.0043 µM; at rat TAAR1, 0.0019 µM.
For `NC1=N[C@@H](CCc2ccc(N3Cc4ccc(Cl)cc4C3=O)cc2)CO1` [Example 186, 2-{4-[2-((S)-2-Amino-4,5-dihydro-oxazol-4-yl)-ethyl]-phenyl}-6-chloro-2,3-dihydro-isoindol-1-one] the same measures were 0.0029 µM and 0.001 µM.
As to `NC1=N[C@@H](CCc2ccc(NC(=O)c3ncc(Cl)cn3)cc2)CO1` [Example 34, 5-Chloro-pyrimidine-2-carboxylic acid {4-[2-((S)-2-amino-4,5-dihydro-oxazol-4-yl)-ethyl]-phenyl}-amide], the Ki on mouse TAAR1 was 0.0067 µM; on rat TAAR1 it was 0.0035 µM.
In the same order, the values of `NC1=N[C@@H](CCc2ccc(NC(=O)c3ccnc(Cl)c3)cc2)CO1` [Example 173, (S)-N-(4-(2-(2-Amino-4,5-dihydrooxazol-4-yl)ethyl)phenyl)-2-chloroisonicotinamide] are 0.0014 µM and 0.0014 µM.
In the same order, the values of `N#Cc1ccc(C(=O)Nc2ccc(CC[C@H]3COC(N)=N3)cc2)nc1` [Example 119, (S)-N-(4-(2-(2-Amino-4,5-dihydrooxazol-4-yl)ethyl)phenyl)-5-cyanopicolinamide] are 0.0015 µM and 0.0044 µM.

The values are drawn from patent US8354441B2, “Oxazoline derivatives” (Hoffmann-La Roche Inc., priority 2009, dated 2013).
